# Laboratory results from PubChem BioAssay AID328 (DTP/NCI, 2004).
# Values joined by “and” are separate entries in the source; they are usually repeats but may differ in a detail not shown here. Equal values may be shown once. Toxic doses and inconclusive results are not listed.
# Test system: BDF1 mice, P388 leukemia ip, median survival T/C
# Assay: NCI In Vivo Anticancer Drug Screen. Data for tumor model P388 Leukemia (intraperitoneal) in B6D2F1 (BDF1) mice
# Settings: endpoint: median survival time, higher = longer survival
# In short: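 Transplantable tumour in mice; compound vs vehicle dosing; survival scored; ratio of treated to control reported.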
# [1] = dose: 3.13 mg/kg/injection, schedule: Q01DX009 (ip), vehicle: saline with Tween-80
# [2] = dose: 6.25 mg/kg/injection, schedule: Q01DX009 (ip), vehicle: saline with Tween-80
# [3] = dose: 12.5 mg/kg/injection, schedule: Q01DX009 (ip), vehicle: saline with Tween-80
# [4] = dose: 6.25 mg/kg/injection, schedule: Q01DX009 (ip), vehicle: saline
# [5] = dose: 12.5 mg/kg/injection, schedule: Q01DX009 (ip), vehicle: saline
# [6] = dose: 25.0 mg/kg/injection, schedule: Q01DX009 (ip), vehicle: saline
# [7] = dose: 50.0 mg/kg/injection, schedule: Q01DX009 (ip), vehicle: saline with Tween-80
# [8] = dose: 100.0 mg/kg/injection, schedule: Q01DX009 (ip), vehicle: saline with Tween-80
# [9] = dose: 200.0 mg/kg/injection, schedule: Q01DX009 (ip), vehicle: saline with Tween-80
# [10] = dose: 25.0 mg/kg/injection, schedule: Q01DX009 (ip), vehicle: saline with Tween-80
# [11] = dose: 100.0 mg/kg/injection, schedule: Q01DX009 (ip), vehicle: saline
# [12] = dose: 100.0 mg/kg/injection, schedule: Q04DX003 (ip), vehicle: saline
# [13] = dose: 200.0 mg/kg/injection, schedule: Q01DX009 (ip), vehicle: saline
# [14] = dose: 200.0 mg/kg/injection, schedule: Q04DX003 (ip), vehicle: saline
# [15] = dose: 400.0 mg/kg/injection, schedule: Q01DX009 (ip), vehicle: saline
# [16] = dose: 400.0 mg/kg/injection, schedule: Q04DX003 (ip), vehicle: saline
# [17] = dose: 264.0 mg/kg/injection, schedule: Q04DX003 (ip), vehicle: saline with Tween-80
# [18] = dose: 400.0 mg/kg/injection, schedule: Q04DX003 (ip), vehicle: saline with Tween-80
# [19] = dose: 25.0 mg/kg/injection, schedule: Q04DX003 (ip), vehicle: saline with Tween-80
# [20] = dose: 50.0 mg/kg/injection, schedule: Q01DX009 (ip), vehicle: saline
# [21] = dose: 50.0 mg/kg/injection, schedule: Q04DX003 (ip), vehicle: saline
compound,measurement,setting,value
Oc1c(Cl)c(Cl)c(Cl)c2cccnc12,T/C,[1],103 % of control
same,T/C,[2],106 % of control
same,T/C,[3],104 % of control
C=CC[n+]1ccc(/C=N\NC(N)=S)c2ccccc21,T/C,[4],111 % of control
same,T/C,[5],101 % of control
same,T/C,[6],106 % of control
COc1cccc(/C=N/NC(=O)c2cc(C)nc3ccc(Br)cc23)c1O,T/C,[7],103 % of control
same,T/C,[8],103 % of control
same,T/C,[9],100 % of control
CCC1(C(C)Br)OC2=C(CC(C#N)(C#N)C(C#N)(C#N)C2)O1 (stereo not drawn),T/C,"dose: 12.0 mg/kg/injection, schedule: Q01DX001 (ip), vehicle: Klucel (hydroxypropylcellulose) (HPC)",116 % of control
same,T/C,"dose: 25.0 mg/kg/injection, schedule: Q01DX001 (ip), vehicle: Klucel (hydroxypropylcellulose) (HPC)",104 % of control
same,T/C,"dose: 50.0 mg/kg/injection, schedule: Q01DX001 (ip), vehicle: Klucel (hydroxypropylcellulose) (HPC)",100 % of control
CC1C=CCC(C)(C)C1 (stereo not drawn),T/C,[10],104 % of control
same,T/C,[7],100 % of control
same,T/C,[8],100 % of control and 113 % of control
c1c[nH]cn1,T/C,[11],90 % of control
same,T/C,[12],95 % of control
same,T/C,[13],100 % of control
same,T/C,[14],104 % of control
same,T/C,[15],118 % of control
same,T/C,[16],95 % of control
O=C1CC(Nc2ccccc2)=C([N+](=O)[O-])C(=O)N1,T/C,[7],109 % of control
same,T/C,[8],102 % of control
same,T/C,[9],109 % of control
C1OC1CO[C@@H]1CO[C@H]2[C@@H]1OC[C@H]2OCC1CO1 (stereo partly drawn),T/C,[17],183 % of control
same,T/C,[18],195 % of control
O=C1c2ccccc2-c2cccc3cccc1c23,T/C,"dose: 6.25 mg/kg/injection, schedule: Q01DX001 (ip), vehicle: saline sonified",96 % of control
same,T/C,"dose: 12.5 mg/kg/injection, schedule: Q01DX001 (ip), vehicle: saline sonified",96 % of control
same,T/C,"dose: 25.0 mg/kg/injection, schedule: Q01DX001 (ip), vehicle: saline sonified",92 % of control
COc1cc(C=Nc2ccc(C(=O)O)cc2)ccc1N(CCCl)CCCl,T/C,"dose: 1.3 mg/kg/injection, schedule: Q04DX003 (ip), vehicle: saline with Tween-80",115 % of control
same,T/C,"dose: 2.0 mg/kg/injection, schedule: Q04DX003 (ip), vehicle: saline with Tween-80",111 % of control
same,T/C,"dose: 3.0 mg/kg/injection, schedule: Q04DX003 (ip), vehicle: saline with Tween-80",162 % of control
same,T/C,"dose: 7.0 mg/kg/injection, schedule: Q04DX003 (ip), vehicle: saline with Tween-80",150 % of control and 158 % of control
same,T/C,"dose: 11.0 mg/kg/injection, schedule: Q04DX003 (ip), vehicle: saline with Tween-80",170 % of control
same,T/C,[3],195 % of control
same,T/C,"dose: 16.0 mg/kg/injection, schedule: Q04DX003 (ip), vehicle: saline with Tween-80",187 % of control
same,T/C,"dose: 16.5 mg/kg/injection, schedule: Q04DX003 (ip), vehicle: saline with Tween-80",169 % of control
same,T/C,[19],196 % of control
same,T/C,"dose: 37.5 mg/kg/injection, schedule: Q04DX003 (ip), vehicle: saline with Tween-80",107 % of control
CC(C)[N+](C)(C)CC(O)COc1cccc2ccccc12 (stereo not drawn),T/C,[5],103 % of control and 112 % of control
same,T/C,[6],88 % of control and 109 % of control
same,T/C,[20],105 % of control and 123 % of control
CC[C@H](CC[C@@H](C)[C@H]1CC[C@H]2[C@@H]3CC=C4C[C@@H](OC(=O)CN5CCNCC5)CC[C@]4(C)[C@H]3CC[C@]12C)C(C)C,T/C,"dose: 50.0 mg/kg/injection, schedule: Q01DX009 (ip), vehicle: Klucel (hydroxypropylcellulose) (HPC)",104 % of control
same,T/C,"dose: 100.0 mg/kg/injection, schedule: Q01DX009 (ip), vehicle: Klucel (hydroxypropylcellulose) (HPC)",104 % of control
CSC(=S)NN=C(C)C,T/C,[1],96 % of control
O=C1OC2CC=CCC2CC1O (stereo not drawn),T/C,[5],92 % of control
same,T/C,[6],96 % of control
same,T/C,[20],102 % of control
same,T/C,[11],102 % of control
O=C1CSC(=O)CS1,T/C,[7],99 % of control
same,T/C,[8],93 % of control
CCOC(=O)/C=C(/CC(=O)OCC)OCC,T/C,"dose: 25.0 mg/kg/injection, schedule: Q04DX003 (ip), vehicle: saline",106 % of control
same,T/C,[21],100 % of control
same,T/C,[12],115 % of control
same,T/C,[14],106 % of control
same,T/C,[16],112 % of control
CNc1ncnc2nc(OC)[nH]c12,T/C,"dose: 0.78 mg/kg/injection, schedule: Q01DX009 (ip), vehicle: saline with Tween-80",95 % of control
same,T/C,"dose: 1.56 mg/kg/injection, schedule: Q01DX009 (ip), vehicle: saline with Tween-80",100 % of control
same,T/C,[1],98 % of control
same,T/C,[2],101 % of control
Cn1nnc(N/N=C/c2ccccc2)n1,T/C,"dose: 3.12 mg/kg/injection, schedule: Q01DX009 (ip), vehicle: saline with Tween-80",102 % of control
same,T/C,"dose: 4.0 mg/kg/injection, schedule: Q01DX009 (ip), vehicle: saline with Tween-80",121 % of control
same,T/C,[2],93 % of control
same,T/C,"dose: 6.25 mg/kg/injection, schedule: Q04DX003 (ip), vehicle: saline with Tween-80",112 % of control
same,T/C,"dose: 8.0 mg/kg/injection, schedule: Q01DX009 (ip), vehicle: saline with Tween-80",123 % of control
same,T/C,"dose: 12.0 mg/kg/injection, schedule: Q01DX009 (ip), vehicle: saline with Tween-80",120 % of control
same,T/C,[3],97 % of control and 107 % of control
same,T/C,"dose: 12.5 mg/kg/injection, schedule: Q04DX003 (ip), vehicle: saline with Tween-80",105 % of control
same,T/C,"dose: 16.0 mg/kg/injection, schedule: Q01DX009 (ip), vehicle: saline with Tween-80",98 % of control
same,T/C,"dose: 20.0 mg/kg/injection, schedule: Q01DX009 (ip), vehicle: saline with Tween-80",114 % of control
same,T/C,[10],100 % of control and 107 % of control
same,T/C,[19],99 % of control and 100 % of control
CC(CNC(=O)CCOS(C)(=O)=O)NC(=O)CCOS(C)(=O)=O (stereo not drawn),T/C,[17],213 % of control
same,T/C,"dose: 267.0 mg/kg/injection, schedule: Q04DX003 (ip), vehicle: saline with Tween-80",183 % of control
same,T/C,[18],208 % of control and 209 % of control
same,T/C,"dose: 500.0 mg/kg/injection, schedule: Q04DX003 (ip), vehicle: saline with Tween-80",212 % of control
same,T/C,"dose: 600.0 mg/kg/injection, schedule: Q04DX003 (ip), vehicle: saline with Tween-80",109 % of control
CC(=O)OCc1cc2cc(O)ccc2nc1C,T/C,[6],98 % of control
same,T/C,[20],107 % of control
same,T/C,[21],111 % of control
same,T/C,[11],101 % of control
same,T/C,[12],110 % of control and 115 % of control
same,T/C,[13],116 % of control
same,T/C,[14],92 % of control and 110 % of control
same,T/C,[15],91 % of control
same,T/C,[16],97 % of control and 104 % of control and 116 % of control
COc1cc2c(c(OC)c1OC)-c1ccc(O)cc1[C@@H](NC(C)=O)CC2,T/C,"dose: 2.5 mg/kg/injection, schedule: Q01DX010 (ip), vehicle: water",86 % of control
same,T/C,"dose: 5.0 mg/kg/injection, schedule: Q01DX010 (ip), vehicle: water",118 % of control
same,T/C,"dose: 10.0 mg/kg/injection, schedule: Q01DX010 (ip), vehicle: water",109 % of control
C=C1C(=O)OC2/C=C(\C)CC(O)/C=C(/C)CC(OC(=O)C3(C)OC3C)C12 (stereo not drawn),T/C,"dose: 100.0 mg/kg/injection, schedule: Q04DX002 (ip), vehicle: Klucel (hydroxypropylcellulose) (HPC)",111 % of control
same,T/C,"dose: 200.0 mg/kg/injection, schedule: Q04DX002 (ip), vehicle: Klucel (hydroxypropylcellulose) (HPC)",113 % of control
Nc1n[nH]c([N+](=O)[O-])n1,T/C,"dose: 100.0 mg/kg/injection, schedule: Q01DX001 (ip), vehicle: saline sonified",108 % of control
same,T/C,"dose: 200.0 mg/kg/injection, schedule: Q01DX001 (ip), vehicle: saline sonified",100 % of control
same,T/C,"dose: 400.0 mg/kg/injection, schedule: Q01DX001 (ip), vehicle: saline sonified",100 % of control
CCCCOB(OCCCC)Oc1c(C(C)(C)C)cccc1C(C)(C)C,T/C,[12],100 % of control
same,T/C,[14],112 % of control
same,T/C,[16],108 % of control
C=C1C(=O)O[C@@H]2[C@H]3O[C@]3(C)CCC=C(C)CC[C@@H]12,T/C,"dose: 6.25 mg/kg/injection, schedule: Q01DX009 (ip), vehicle: alcohol",90 % of control
same,T/C,"dose: 12.5 mg/kg/injection, schedule: Q01DX009 (ip), vehicle: alcohol",122 % of control
same,T/C,"dose: 25.0 mg/kg/injection, schedule: Q01DX009 (ip), vehicle: alcohol",122 % of control
same,T/C,"dose: 50.0 mg/kg/injection, schedule: Q01DX009 (ip), vehicle: alcohol",113 % of control
CC(C(=O)O)C(=O)O.[NH2-].[NH2-].[Pt+2],T/C,[4],93 % of control
same,T/C,[6],214 % of control
